The source of these data is patent publication US20240002416A1 (Rheinische-Friedrich-Wilhelms-Universität Bonn, priority 2020, published 2024).

In data set [1] the target is T1, human MRGPRX4-83L (Homo sapiens, UniProt Q96LA9).
T1 construct: host or cells: CHO β-arrestin cells
The data set is described as follows: β-arrestin assay (CHO β-arrestin ARMS1-ProLink 2 human MRGPRX4 83L). Format: cell-based. The note with it: for Emax: efficacy based on maximal effect of 100 nM B-16 (set as 100%), read-out: Emax; for EC50: β-arrestin recruitment, CHO cells, MRGPRX4-83L, read-out: EC50 ± SEM. On the procedure:
(§1) For β-arrestin recruitment assays, recombinant Chinese hamster ovary (CHO) cells expressing the human MRGPRX4 were used (DiscoverX/Eurofins) which allowed to measure β-galactosidase complementation upon β-arrestin recruitment. For calcium mobilization assays, recombinant astrocytes expressing MRGPX4-83L, or LN229 glioblastoma cells natively expressing the MRGPRX4-83S, were used.
(§2) The assays were performed as previously described for other rhodopsin-like GPCRs (Müller, C.E.; 8-Benzamidochromen-4-one-2-carboxylic acids: potent and selective agonists for the orphan G protein-coupled receptor GPR35. J. Med. Chem. 2013, 56:5182-97; Müller, C.E. Molecular Recognition of Agonists and Antagonists by the Nucleotide-Activated G Protein-Coupled P2Y2 Receptor. J. Med. Chem. 2017, 60:8425-8440).

Data set [2] concerns the target T1, human MRGPRX4-83L. Briefly: Calcium assay (human MRGPRX4 83L), recombinant astrocytes. Format: cell-based. The following applies: for EC50: calcium mobilization, MRGPRX4-83L, read-out: EC50 ± SEM; for Emax: efficacy based on maximal effect of 1 μM B-16 (set as 100%), read-out: Emax. On the procedure:
as §1, §2
In general terms: A change in cytosolic calcium serves as a functional read-out for many receptors and channels.

[3] abbreviates: Table 1, means of 3-4 experiments.

T1 sequence (Q96LA9 whole entry): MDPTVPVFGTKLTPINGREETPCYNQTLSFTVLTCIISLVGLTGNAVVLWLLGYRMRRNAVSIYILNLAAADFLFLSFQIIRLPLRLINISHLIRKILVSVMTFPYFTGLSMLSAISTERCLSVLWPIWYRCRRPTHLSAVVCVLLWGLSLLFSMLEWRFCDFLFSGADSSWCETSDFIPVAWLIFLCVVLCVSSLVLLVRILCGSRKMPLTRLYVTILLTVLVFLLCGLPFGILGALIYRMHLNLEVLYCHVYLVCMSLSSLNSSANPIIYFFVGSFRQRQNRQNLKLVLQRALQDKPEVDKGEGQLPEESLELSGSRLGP

With `C#CCn1c(=O)c2c(nc(CCc3ccccc3Br)n2CC2CCCC2)n(CCCCP(=O)(O)O)c1=O` [B-37, (4-(8-(2-Bromophenethyl)-7-(cyclopentylmethyl)-2,6-dioxo-1-(prop-2-yn-1-yl)-1,2,6,7-tetrahydro-3H-purin-3-yl)butyl)phosphonic acid], the melting point (commonly the temperature of the solid-liquid transition) lay in the range of 137 to 139 °C. In data set [1] (Table 4), the maximal effect (Emax) – broadly, the greatest response seen or fitted, relative to the assay's reference – turned out to be 87% and the EC50 (in general, the concentration needed to bring the measured effect to its halfway point) was found to be 169 ± 23 nM. In data set [2] (Table 4), the EC50 came out at 89.2 ± 25.5 nM and the Emax was determined as 84%.
For `C#CCn1c(=O)c2[nH]c(CCc3ccccc3I)nc2n(CCCCP(=O)(O)O)c1=O` [B-25, (4-(8-(2-Iodophenethyl)-2,6-dioxo-1-(prop-2-yn-1-yl)-1,2,6,7-tetrahydro-3H-purin-3-yl)butyl) phosphonic acid], the melting point was 227 to 229 °C. In addition, in data set [1] (Table 4), the maximum response (Emax) was found to be 96% and the concentration giving a half-maximal response (EC50) came to 381 ± 112 nM. Further, in data set [2] (Table 4), the EC50 is 43.1 ± 9.4 nM and the maximum response (Emax) stood at 103%.
In the same order, the values of `C#CCn1c(=O)c2c(nc(CCc3ccc(Br)cc3)n2CC)n(CCCCP(=O)(O)O)c1=O` [B-35, (4-(8-(4-Bromophenethyl)-7-ethyl-2,6-dioxo-1-(prop-2-yn-1-yl)-1,2,6,7-tetrahydro-3H-purin-3-yl)butyl)phosphonic acid] are 169 to 171 °C, 84%, 521 ± 142 nM, 306 ± 111 nM and 41%.
With `C#CCn1c(=O)c2c(nc(CCc3ccc(Br)cc3)n2C)n(CCCCP(=O)(O)O)c1=O` [B-29, (4-(8-(4-Bromophenethyl)-7-methyl-2,6-dioxo-1-(prop-2-yn-1-yl)-1,2,6,7-tetrahydro-3H-purin-3-yl)butyl)phosphonic acid], the melting point was in the range of 227 to 229 °C. In data set [1] (Table 4), the maximal effect (Emax) was found to be 100% and the EC50 stood at 2440 ± 750 nM. Moreover, in data set [2] (Table 4), the EC50 was 134 ± 13 nM and the Emax amounted to 45%.
The corresponding values for `C#CCn1c(=O)c2c(nc(CCc3ccccc3I)n2C(C)C)n(CCCCP(=O)(O)O)c1=O` [B-47, (4-(8-(2-Iodophenethyl)-7-isopropyl-2,6-dioxo-1-(prop-2-yn-1-yl)-1,2,6,7-tetrahydro-3H-purin-3-yl)butyl)phosphonic acid] are 123 to 125 °C, 97%, 6.85 ± 7.18 nM, 1.16 ± 0.26 nM and 118%.
Compound `C#CCn1c(=O)c2[nH]c(CCc3ccccc3F)nc2n(CCCCP(=O)(O)O)c1=O` [B-24, (4-(8-(2-Fluorophenethyl)-2,6-dioxo-1-(prop-2-yn-1-yl)-1,2,6,7-tetrahydro-3H-purin-3-yl)butyl) phosphonic acid] had a melting point of 239 to 241 °C. For the same compound, in data set [1] (Table 4), the Emax worked out at 98% and the EC50 was 8190 ± 1810 nM. In addition, in data set [2] (Table 4), the EC50 is 1420 ± 290 nM and the Emax came to 100%.
The corresponding values for `C#CCn1c(=O)c2[nH]c(CCc3ccccc3Br)nc2n(CCCCCP(=O)(O)O)c1=O` [B-52, (5-(8-(2-Bromophenethyl)-2,6-dioxo-1-(prop-2-yn-1-yl)-1,2,6,7-tetrahydro-3H-purin-3-yl)pentyl)phosphonic acid] are 219 to 221 °C, 93%, 1890 ± 280 nM, 604 ± 275 nM and 61%.
In the case of `C#CCn1c(=O)c2c(nc(CCc3ccccc3Br)n2Cc2ccccc2)n(CCCCP(=O)(O)O)c1=O` [B-23, (4-(7-Benzyl-8-(2-bromophenethyl)-2,6-dioxo-1-(prop-2-yn-1-yl)-1,2,6,7-tetrahydro-3H-purin-3-yl)butyl)phosphonic acid], the melting point was 126 to 129 °C. Moreover, the maximum response (Emax) in data set [1] (Table 1) is 164%. In data set [1] (setting [3]), the EC50 turned out to be 59.9 ± 12.8 nM. Besides, in data set [2] (Table 1), the EC50 turned out to be 5.03 ± 1.59 nM and the Emax was determined as 103%.
Compound `C#CCn1c(=O)c2c(nc(CCc3ccccc3F)n2CC)n(CCCCP(=O)(O)O)c1=O` [B-30, (4-(7-Ethyl-8-(2-fluorophenethyl)-2,6-dioxo-1-(prop-2-yn-1-yl)-1,2,6,7-tetrahydro-3H-purin-3-yl)butyl)phosphonic acid] yielded a melting point of 197 to 199 °C. For the same compound, in data set [1] (Table 4), the Emax came to 96% and the EC50 came out at 262 ± 97 nM. In data set [2] (Table 4), the EC50 is 15.5 ± 12.5 nM and the maximal response (Emax) is 97%.
`C#CCn1c(=O)c2c(nc(Cc3cccc4ccccc34)n2CC)n(CCCCP(=O)(O)O)c1=O` [B-58, (4-(7-Ethyl-8-(naphthalen-1-ylmethyl)-2,6-dioxo-1-(prop-2-yn-1-yl)-1,2,6,7-tetrahydro-3H-purin-3-yl)butyl)phosphonic acid]: the melting point was 138 to 140 °C.
Take `C#CCn1c(=O)c2[nH]c(CCc3ccccc3Br)nc2n(CCCCCCP(=O)(O)O)c1=O` [B-55, (6-(8-(2-Bromophenethyl)-2,6-dioxo-1-(prop-2-yn-1-yl)-1,2,6,7-tetrahydro-3H-purin-3-yl)hexyl)phosphonic acid]: the melting point was in the range of 225 to 227 °C. Also, in data set [1] (Table 4), the maximal effect (Emax) was determined as 98% and the 50% effective concentration (EC50) is 857 ± 220 nM. Besides, in data set [2] (Table 4), the EC50 was found to be 57.8 ± 18.9 nM and the Emax was found to be 94%.
In turn, `C#CCn1c(=O)c2c(nc(CCc3ccccc3Br)n2CC)n(CCCCCCP(=O)(O)O)c1=O` [B-57, (6-(8-(2-Bromophenethyl)-7-ethyl-2,6-dioxo-1-(prop-2-yn-1-yl)-1,2,6,7-tetrahydro-3H-purin-3-yl)hexyl)phosphonic acid] displayed a melting point of 223 to 225 °C. In data set [1] (Table 4), the Emax was 97% and the 50% effective concentration (EC50) worked out at 766 ± 357 nM. In data set [2] (Table 4), the EC50 was 474 ± 152 nM and the maximal response (Emax) was determined as 98%.
The corresponding values for `C#CCn1c(=O)c2c(nc(CCc3ccccc3Br)n2C)n(CCCCCP(=O)(O)O)c1=O` [B-53, (5-(8-(2-Bromophenethyl)-7-methyl-2,6-dioxo-1-(prop-2-yn-1-yl)-1,2,6,7-tetrahydro-3H-purin-3-yl)pentyl)phosphonic acid] are 110 to 112 °C, 94%, 1070 ± 350 nM, 15.5 ± 1 nM and 113%.
As for `C#CCn1c(=O)c2c(nc(CCc3ccccc3Br)n2CC2CC2)n(CCCCP(=O)(O)O)c1=O` [B-21, (4-(8-(2-Bromophenethyl)-7-(cyclopropylmethyl)-2,6-dioxo-1-(prop-2-yn-1-yl)-1,2,6,7-tetrahydro-3H-purin-3-yl)butyl)phosphonic acid], the melting point lay in the range of 181 to 184 °C. Besides, in data set [1] (Table 1), the maximal effect (Emax) amounted to 163%. In addition, the EC50 in data set [1] (setting [3]) came to 89.8 ± 20.9 nM. Further, in data set [2] (Table 1), the 50% effective concentration (EC50) was 2.02 ± 0.62 nM and the Emax turned out to be 109%.
The compound `C#CCn1c(=O)c2c(nc(CCc3ccccc3Br)n2CC)n(CCCCCP(=O)(O)O)c1=O` [B-54, (5-(8-(2-Bromophenethyl)-7-ethyl-2,6-dioxo-1-(prop-2-yn-1-yl)-1,2,6,7-tetrahydro-3H-purin-3-yl)pentyl)phosphonic acid] yielded a melting point of 146 to 148 °C. In data set [1] (Table 4), the Emax came out at 96% and the EC50 is 534 ± 170 nM. In data set [2] (Table 4), the 50% effective concentration (EC50) stood at 20.1 ± 4.1 nM and the maximal effect (Emax) was found to be 103%.
In the same order, the values of `C#CCn1c(=O)c2nc(CCc3ccc(Br)cc3)[nH]c2n(CCCCP(=O)(O)O)c1=O` [B-26, (4-(8-(4-Bromophenethyl)-2,6-dioxo-1-(prop-2-yn-1-yl)-1,2,6,9-tetrahydro-3H-purin-3-yl)butyl) phosphonic acid] are 206 to 208 °C, 70%, 2740 ± 580 nM, 187 ± 39 nM and 79%.
As to `C#CCn1c(=O)c2c(nc(CCc3ccccc3Br)n2CCC)n(CCCCP(=O)(O)O)c1=O` [B-22, (4-(8-(2-Bromophenethyl)-2,6-dioxo-1-(prop-2-yn-1-yl)-7-propyl-1,2,6,7-tetrahydro-3H-purin-3-yl)butyl)phosphonic acid], the melting point was 178 to 181 °C. Also, in data set [1] (Table 1), the maximal response (Emax) amounted to 176%. Besides, the EC50 in data set [1] (setting [3]) was determined as 208 ± 49 nM. Moreover, in data set [2] (Table 1), the EC50 is 17.8 ± 6.2 nM and the Emax worked out at 119%.
Compound `C#CCn1c(=O)c2c(nc(CCc3ccccc3Br)n2CCO)n(CCCCP(=O)(O)O)c1=O` [B-20, (4-(8-(2-Bromophenethyl)-7-(2-hydroxyethyl)-2,6-dioxo-1-(prop-2-yn-1-yl)-1,2,6,7-tetrahydro-3H-purin-3-yl)butyl)phosphonic acid] displayed a melting point of 157 to 160 °C. The Emax in data set [1] (Table 1) is 124%. Further, in data set [1] (setting [3]), the EC50 is 32.9 ± 7.5 nM. In data set [2] (Table 1), the concentration giving a half-maximal response (EC50) is 1.86 ± 0.45 nM and the Emax was determined as 103%.
In the same order, the values of `C#CCn1c(=O)c2c(nc(CCc3ccccc3Br)n2CC)n(CCCCP(=O)(O)O)c1=O` [B-19, (4-(8-(2-Bromophenethyl)-7-ethyl-2,6-dioxo-1-(prop-2-yn-1-yl)-1,2,6,7-tetrahydro-3H-purin-3-yl)butyl)phosphonic acid] are 192 to 195 °C, 144%, 25.9 ± 7.9 nM, 4.26 ± 0.56 nM and 115%.
